Source: patent US20190111059A1, “COMPOSITIONS AND METHODS FOR TREATING AUTISM SPECTRUM DISORDER” (Marinus Pharmaceuticals, Inc., priority 2017, published 2019)
Structures can show the parent of a compound that is named as a salt.

Tests used:
[1] = test system: children with non-syndromic autism spectrum disorder (ASD) and language impairment; assay: Randomized placebo-controlled trial: Vineland Adaptive Behavior Scale (VABS); type: in vivo, human; conditions: higher = better; for VABS Daily living, estimated effect: calcium salt
Method: The Vineland Adaptive Behavior Scale 2nd Edition (“VABS”) is a reliable and valid measure of the ability to perform age-appropriate everyday skills though a 20-30 min structured interview with a caretaker. Standard scores from the communication, daily living, social and motor skills, and adaptive behavioral composite were analyzed. Standard scores have a mean of 100, standard deviation of 15 and range 20-160. […] This two-arm double-blind randomized placebo-controlled parallel study with a 1:1 allocation was performed at Arkansas Children's Research Institute (Little Rock, Ark., USA) from 4 Jun. 2012 to 22 Nov. 2013. Those confirmed to have language impairment were randomized to the folinic acid or placebo group and a fasting blood sample was obtained. Randomization was performed using a random number generator with a block size of four. The research pharmacists had exclusive access to the randomization allocation. After breakfast, the participants returned for language, developmental and behavioral assessments. Following these assessments the family was given the 12 weeks of the intervention and was instructed on its administration. Language, developmental and behavioral assessments were repeated after 12 weeks of treatment. The target dose of the intervention (INN: DL folinic acid calcium salt; USAN: leucovorin calcium) was 2 mg kg^−1 per day (maximum 50 mg per day) in two equally divided doses with half of the target dose given during the first 2 weeks. Dye-free, milk-product-free, vegetarian capsules were provided in three strengths (5, 10 and 25 mg) by Lee Silsby Compounding Pharmacy (Cleveland Heights, Ohio, USA). Certificate of analysis was provided for each capsule strength by an independent analytical service (Eagle Analytical Services, Houston, Tex., USA) for each batch of capsules produced. In all cases, potency was at least 99%. Secondary outcomes. Secondary outcome measures included the Ohio Autism Clinical Impression Scale (OACIS), Vineland Adaptive Behavior Scale 2nd Edition (VABS) Survey Interview Form and several questionnaires. Parents and teachers were asked to complete the Aberrant Behavior Checklist (ABC), Social Responsiveness Scale (SRS) and Behavioral Assessment System for Children 2nd Edition (BASC). Only parents were asked to complete the Autism Impact Measure (AIM) and Autism Symptoms Questionnaire (ASQ). Secondary outcome measures were analyzed using the mixed-model regression. Because of the large number of secondary outcomes, correction for multiple comparisons was conducted using the false discovery rate.

[2] = test system: children with non-syndromic autism spectrum disorder (ASD) and language impairment; assay: Randomized placebo-controlled trial: Ohio Autism Clinical Impression Scale (OACIS); type: in vivo, human; conditions: lower = less severity
Method: The Ohio Autism Clinical Impression Scale (“OACIS”) is an observer-rated scale sensitive to clinically meaningful changes in ASD symptoms. […] Severity of each symptom was rated by the first author at baseline and at the final assessment by observing the entire assessment of verbal communication. In validation studies a 0.5-point change was considered clinically meaningful. This two-arm double-blind randomized placebo-controlled parallel study with a 1:1 allocation was performed at Arkansas Children's Research Institute (Little Rock, Ark., USA) from 4 Jun. 2012 to 22 Nov. 2013. Those confirmed to have language impairment were randomized to the folinic acid or placebo group and a fasting blood sample was obtained. Randomization was performed using a random number generator with a block size of four. The research pharmacists had exclusive access to the randomization allocation. After breakfast, the participants returned for language, developmental and behavioral assessments. Following these assessments the family was given the 12 weeks of the intervention and was instructed on its administration. Language, developmental and behavioral assessments were repeated after 12 weeks of treatment. The target dose of the intervention (INN: DL folinic acid calcium salt; USAN: leucovorin calcium) was 2 mg kg^−1 per day (maximum 50 mg per day) in two equally divided doses with half of the target dose given during the first 2 weeks. Dye-free, milk-product-free, vegetarian capsules were provided in three strengths (5, 10 and 25 mg) by Lee Silsby Compounding Pharmacy (Cleveland Heights, Ohio, USA). Certificate of analysis was provided for each capsule strength by an independent analytical service (Eagle Analytical Services, Houston, Tex., USA) for each batch of capsules produced. In all cases, potency was at least 99%. Secondary outcomes. Secondary outcome measures included the Ohio Autism Clinical Impression Scale (OACIS), Vineland Adaptive Behavior Scale 2nd Edition (VABS) Survey Interview Form and several questionnaires. Parents and teachers were asked to complete the Aberrant Behavior Checklist (ABC), Social Responsiveness Scale (SRS) and Behavioral Assessment System for Children 2nd Edition (BASC). Only parents were asked to complete the Autism Impact Measure (AIM) and Autism Symptoms Questionnaire (ASQ). Secondary outcome measures were analyzed using the mixed-model regression. Because of the large number of secondary outcomes, correction for multiple comparisons was conducted using the false discovery rate.

[3] = test system: children with neurodevelopmental regression and neurological abnormalities (cerebral folate deficiency); conditions: six children with cerebral folate deficiency; cited from earlier work
[4] = vs placebo, mixed-model regression
[5] = 2 mg kg^−1 per day, 12 weeks, baseline 4.4

Nc1nc2c(c(=O)[nH]1)N(C=O)C(CNc1ccc(C(=O)N[C@@H](CCC(=O)O)C(=O)O)cc1)CN2 (mixture of isomers) [Folinic acid, DL folinic acid calcium salt]
VABS Social skills, 12-week assessment mean ([1]; 2 mg kg^−1 per day, 12 weeks, baseline 64.4): 68.3 Standard Score | VABS Daily living, 12-week assessment mean ([1]; 2 mg kg^−1 per day, 12 weeks, baseline 64.6): 69.2 Standard Score | VABS Adaptive behavior, 12-week assessment mean ([1]; 2 mg kg^−1 per day, 12 weeks, baseline 64.8): 67.7 Standard Score | VABS Communication, 12-week assessment mean ([1]; 2 mg kg^−1 per day, 12 weeks, baseline 66.2): 68.3 Standard Score | VABS Motor skills, 12-week assessment mean ([1]; 2 mg kg^−1 per day, 12 weeks, baseline 78.9): 81.7 Standard Score | VABS Adaptive behavior, estimated effect [1, 4]: 0.3 Standard Score | VABS Communication, estimated effect [1, 4]: 0.2 Standard Score | VABS Motor skills, estimated effect [1, 4]: 0.1 Standard Score | VABS Social skills, estimated effect [1, 4]: 0.2 Standard Score | VABS Daily living, estimated effect [1, 4]: 0.5 Standard Score | VABS Daily living, estimated effect ([1]; vs placebo, mixed-model regression, listed as folinic acid): significantly improved | OACIS Sensory sensitivity, 12-week assessment mean ([2]; 2 mg kg^−1 per day, 12 weeks, baseline 1.6): 1.4 Severity | OACIS Restricted interest, 12-week assessment mean ([2]; 2 mg kg^−1 per day, 12 weeks, baseline 2.3): 2.0 Severity | OACIS Anxiety, 12-week assessment mean ([2]; 2 mg kg^−1 per day, 12 weeks, baseline 2.5): 2.3 Severity | OACIS Repetitive behavior, 12-week assessment mean ([2]; 2 mg kg^−1 per day, 12 weeks, baseline 3.2): 2.5 Severity | OACIS Non-verbal communication, 12-week assessment mean ([2]; 2 mg kg^−1 per day, 12 weeks, baseline 3.6): 3.3 Severity | OACIS Aberrant behavior, 12-week assessment mean ([2]; 2 mg kg^−1 per day, 12 weeks, baseline 3.8): 3.4 Severity | OACIS Hyperactivity, 12-week assessment mean ([2]; 2 mg kg^−1 per day, 12 weeks, baseline 4.1): 3.8 Severity | OACIS Social, 12-week assessment mean ([2]; 2 mg kg^−1 per day, 12 weeks, baseline 4.3): 3.8 Severity | OACIS Autistic behavior, 12-week assessment mean [2, 5]: 4.0 Severity | OACIS Verbal communication, 12-week assessment mean [2, 5]: 3.8 Severity | OACIS Aberrant behavior, estimated effect [2, 4]: −0.3 Severity | OACIS Anxiety, estimated effect [2, 4]: −0.1 Severity | OACIS Autistic behavior, estimated effect [2, 4]: −0.2 Severity | OACIS Hyperactivity, estimated effect [2, 4]: −0.3 Severity | OACIS Non-verbal communication, estimated effect [2, 4]: −0.0 Severity | OACIS Repetitive behavior, estimated effect [2, 4]: −0.4 Severity | OACIS Restricted interest, estimated effect [2, 4]: −0.2 Severity | OACIS Sensory sensitivity, estimated effect [2, 4]: −0.3 Severity | OACIS Social, estimated effect [2, 4]: −0.1 Severity | OACIS Verbal communication, estimated effect [2, 4]: −0.2 Severity | CSF folate concentrations [3]: normalized | Neurological symptoms [3]: significantly improved
